Literature values as cited in patent EP0423943A2, “Use of collagenase inhibitors in the treatment of demyelinating diseases, in particular multiple sclerosis” (Beecham Group p.l.c., priority 1989, dated 1991).

Test system: metalloprotease acting at neutral pH identified as a component of myelin membranes
Details: myelin membrane metalloprotease, literature statement

inhibition of the enzyme | SMILES
not | CC(C)C[C@H](NP(=O)(O)O[C@@H]1O[C@@H](C)[C@H](O)[C@@H](O)[C@H]1O)C(=O)N[C@@H](Cc1c[nH]c2ccccc12)C(=O)O [phosphoramidon]
inhibited | c1cnc2c(c1)ccc1cccnc12 [1,10-phenanthroline]
